# Experimental data published in patent publication US10966911B2, “Melanin decomposition inhibitor” (KAO CORPORATION, priority 2016, dated 2021).
# Legend:
# [1] = tested on: keratinocytes and melanocytes; test: Cellular respiratory chain (growth) activity in keratinocyte-melanocyte co-culture system; format: cell-based, human; conditions: concentration range of 30 μM or less, 4 days, FIGS. 16C, 16D
# Excerpt: Normal human neonatal foreskin-derived epidermal keratinocytes (Human Epidermal Keratinocytes, neonatal (HEKn) lightly; keratinocytes) and growth medium (Epilife) for epidermal keratinocytes were purchased from Thermo Fisher Scientific. Growth additives (Humedia-KG) for a medium were purchased from Kurabo Industries Ltd. Normal human neonatal foreskin-derived epidermal melanocytes (Human Epidermal Melanocytes, neonatal, lightly pigmented donor (HEMn-LP) and Human Epidermal Melanocytes, neonatal, darkly pigmented donor (HEMn-DP); melanocytes (lightly) and melanocytes (darkly)) were purchased from Thermo Fisher Scientific. Keratinocytes and melanocytes were cultured at 37° C. in 5 vol % CO2 atmospheric conditions.
# Keratinocytes were seeded in a 96-well plate at a cell density of 1×10^4 cells/well (100 μL/well). On the following day, melanocytes (lightly and darkly) were seeded at a cell density of 2×10^4 cells/well (100 μL/well). […] Culture was performed at 37° C. in a 5 vol % CO2 atmospheric conditions for 4 days. As a test medium at this time, Epilife was used, which contained Humedia-KG growth additive (insulin, hydrocortisone, BPE, gentamicin and amphotericin B) except a Human Epidermal Growth Factor (hEGF). […] After completion of culture, cellular respiratory chain (growth) activity and dopa oxidase activity were evaluated in the same manner as in Example 11.
# Pmel17 = test: Melanin (melanosome) decomposition in epidermal keratinocytes that incorporated MNT-1 melanosome fraction; format: cell-based, human; conditions: keratinocytes with incorporated melanosome, proguanil 10 or 30 μM, 2 days, FIG. 17
# Protocol: Normal human neonatal foreskin-derived epidermal keratinocytes (Human Epidermal Keratinocytes, neonatal (HEKn) lightly; keratinocytes) were purchased from Thermo Fisher Scientific. Melanoma cell strain MNT-1 cells were given by Dr. […] (University La Sapienza, Rome, Italy). The keratinocytes were cultured in a grow medium (Epilife) epidermal keratinocytes (Thermo Fisher Scientific) supplemented with a growth additive (Humedia-KG) (manufactured by Kurabo Industries Ltd.) at 37° C. in 5 vol % CO2 atmospheric conditions. As a grow medium MNT-1 cells, RPMI1640 medium (Thermo Fisher Scientific) containing AIM-V medium and Fetal Bovine Serum (FES) each in an amount of 10% (v/v) was used and culture was performed at 37° C. in 5 vol % CO2 atmospheric conditions. A melanosome fraction was isolated and prepared from MNT-1 cells by a predetermined method (Murase et al. (2013), J Invest Dermatol, 133: 2416-2424). […] The resultant supernatant was subjected to quantitative determination of protein by BCA (bicinchoninic acid) method using Pierce BCA Protein Assay Kit (Thermo Fisher Scientific) and Bovine Serum Albumin (BSA) as a standard substance. […] Expression of β-actin as the internal standard was evaluated by using a monoclonal antibody specific for β-actin (Sigma-Aldrich, 1:5000). […]
structure (smiles),measurement,setting,value
"[H]/N=C(\N/C(=N/[H])Nc1ccc(Cl)cc1)NC(C)C [proguanil, 1-(p-chlorophenyl)-5-isopropyl biguanide]",cell toxicity (cellular respiratory chain activity),[1],cell toxicity was not observed
same,color density of the cell sediment,Pmel17,confirmed to be increased in a concentration-dependent manner
same,intensity of the band of Pmel17,Pmel17; versus DMSO,is increased in a concentration-dependent manner
